The record followed here is patent US8071570B2, “Mixtures of polysaccharides derived from heparin, their preparation and pharmaceutical compositions containing them” (Aventis Pharma S.A., priority 2002, dated 2011).

The subject of assay [1] is activated factor X (factor Xa). As to the kind of experiment: anti-Xa activity, amidolytic method on a chromogenic substrate. In kind it is biochemical. The note with it: isolated hexasaccharide. On the procedure:
The anti-Xa activity is measured by the amidolytic method on a chromogenic substrate described by Teien et al., Thromb. Res., 10, 399-410 (1977), with, as standard, the first international standard for low-molecular-weight heparins. See Barrowcliffe, T. W., A. D. Curtis, et al. (1985). “Standardization of Low Molecular Weight Heparins: A Collaborative Study.” Thrombosis and Haemostasis 54: 675-679; and Barrowcliffe, T. W. (1988). “An International Standard for Low Molecular Weight Heparin.” Thrombosis and Haemostasis 60:1-7.

The target of a further assay is ATIII (Homo sapiens, UniProt P01008).
ATIII, sequence (P01008 33-464, species assumed): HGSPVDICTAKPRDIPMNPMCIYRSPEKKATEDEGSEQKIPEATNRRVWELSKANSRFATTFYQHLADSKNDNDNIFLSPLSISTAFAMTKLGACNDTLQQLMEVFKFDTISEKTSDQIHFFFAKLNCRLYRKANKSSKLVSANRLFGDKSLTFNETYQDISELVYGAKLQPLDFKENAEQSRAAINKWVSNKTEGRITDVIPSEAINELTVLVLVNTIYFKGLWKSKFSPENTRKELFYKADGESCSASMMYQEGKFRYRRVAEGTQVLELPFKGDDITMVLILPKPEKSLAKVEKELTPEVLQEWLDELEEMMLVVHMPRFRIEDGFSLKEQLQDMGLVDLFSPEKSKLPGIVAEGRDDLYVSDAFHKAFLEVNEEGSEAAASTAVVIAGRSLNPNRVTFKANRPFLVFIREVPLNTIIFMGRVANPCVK

With `CC(=O)N[C@H]1[C@@H](O[C@H]2[C@H](O)[C@@H](O)[C@H](O[C@H]3[C@H](OS(=O)(=O)O)[C@@H](NS(=O)(=O)O)[C@@H](O[C@H]4[C@H](O)[C@@H](OS(=O)(=O)O)[C@H](O[C@H]5[C@H](O)[C@@H](NS(=O)(=O)O)[C@@H](O)O[C@@H]5COS(=O)(=O)O)O[C@H]4C(=O)O)O[C@@H]3COS(=O)(=O)O)O[C@@H]2C(=O)O)O[C@H](COS(=O)(=O)O)[C@@H](O[C@@H]2OC(C(=O)O)=C[C@H](O)[C@H]2O)[C@@H]1O` [hexasaccharide ΔIIa-IIs-Is], the aXa activity result in assay [1] was “greater than 740 U/mg”. For the same molecule, the “affinity for ATIII” value at ATIII was “high affinity”.
